Test results reported in ChEMBL document CHEMBL1201862, “PubChem BioAssay data set” (2004).
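Interpolation was linear, between the two tested concentrations surrounding the appropriate level; five concentrations were tested over 48 hours in 96-well plates. The concentration for 50% growth inhibition is given as GI50.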 The source made the active and inactive calls. No stated cut-off is given here; in the data, active = GI50 up to about 1.1 µM and inactive = higher.

Key:
Assay in all cases: NCI-60 cell line screen, 48 h
TK-10 = tested on: TK-10
A498 = tested on: A498
Malme-3M = tested on: Malme-3M
HCT-15 = tested on: HCT-15
EKVX = tested on: EKVX
NCI/ADR-RES = tested on: NCI/ADR-RES
ACHN = tested on: ACHN
UO-31 = tested on: UO-31
MDA-N = tested on: MDA-N
SN12C = tested on: SN12C
HCC 2998 = tested on: HCC 2998
COLO 205 = tested on: COLO 205
SF-295 = tested on: SF-295
RXF 393 = tested on: RXF 393
SR = tested on: SR
Hs-578T = tested on: Hs-578T
UACC-62 = tested on: UACC-62
IGROV-1 = tested on: IGROV-1
A549 = tested on: A549
MOLT-4 = tested on: MOLT-4
786-0 = tested on: 786-0
HOP-62 = tested on: HOP-62
NCI-H226 = tested on: NCI-H226
K562 = tested on: K562
SW-620 = tested on: SW-620
OVCAR-3 = tested on: OVCAR-3
NCI-H460 = tested on: NCI-H460
RPMI-8226 = tested on: RPMI-8226
SK-MEL-2 = tested on: SK-MEL-2
MDA-MB-435 = tested on: MDA-MB-435
KM12 = tested on: KM12
U-251 = tested on: U-251
NCI-H23 = tested on: NCI-H23
HL-60 = tested on: HL-60
OVCAR-5 = tested on: OVCAR-5
DU-145 = tested on: DU-145
LOX IMVI = tested on: LOX IMVI
SK-OV-3 = tested on: SK-OV-3
OVCAR-4 = tested on: OVCAR-4
MDA-MB-231 = tested on: MDA-MB-231
SNB-19 = tested on: SNB-19
HCT-116 = tested on: HCT-116
SK-MEL-5 = tested on: SK-MEL-5
CAKI-1 = tested on: CAKI-1
OVCAR-8 = tested on: OVCAR-8
M14 = tested on: M14
BT-549 = tested on: BT-549
MCF7 = tested on: MCF7
SK-MEL-28 = tested on: SK-MEL-28
HOP-92 = tested on: HOP-92
SF-539 = tested on: SF-539
CCRF-CEM = tested on: CCRF-CEM
HT-29 = tested on: HT-29
PC-3 = tested on: PC-3
NCI-H522 = tested on: NCI-H522
T47D = tested on: T47D
SF-268 = tested on: SF-268
UACC-257 = tested on: UACC-257

Measured: GI50

Cc1cc(C)n(-c2nc(-n3nc(C)cc3C)nc(-n3nc(C)cc3C)n2)n1
83.8 µM: HCT-15
inactive: TK-10 30.1 µM | A498 > 100 µM | Malme-3M 37.2 µM | EKVX 40.2 µM | NCI/ADR-RES > 100 µM | ACHN 38.6 µM | UO-31 43.3 µM | MDA-N > 100 µM | SN12C > 100 µM | HCC 2998 > 100 µM | COLO 205 > 100 µM | SF-295 > 100 µM | RXF 393 > 100 µM | SR > 100 µM | Hs-578T 50.5 µM | UACC-62 > 100 µM | IGROV-1 > 100 µM | A549 > 100 µM | MOLT-4 > 100 µM | 786-0 > 100 µM | HOP-62 > 100 µM | NCI-H226 35.8 µM | K562 59.2 µM | SW-620 > 100 µM | OVCAR-3 > 100 µM | NCI-H460 33.2 µM | RPMI-8226 93.1 µM | SK-MEL-2 > 100 µM | MDA-MB-435 > 100 µM | KM12 > 100 µM | U-251 > 10 µM | NCI-H23 88.7 µM | HL-60 > 100 µM | OVCAR-5 > 100 µM | DU-145 > 100 µM | LOX IMVI > 100 µM | SK-OV-3 > 100 µM | OVCAR-4 > 100 µM | MDA-MB-231 > 100 µM | SNB-19 > 100 µM | HCT-116 > 100 µM | SK-MEL-5 > 100 µM | CAKI-1 39.2 µM | OVCAR-8 68.9 µM | M14 > 100 µM | BT-549 > 100 µM | MCF7 > 100 µM | SK-MEL-28 > 100 µM | HOP-92 > 100 µM | SF-539 > 100 µM | CCRF-CEM 62.7 µM | HT-29 > 100 µM | PC-3 > 100 µM | NCI-H522 > 100 µM | T47D > 100 µM | SF-268 > 100 µM | UACC-257 > 100 µM
